Experimental data: patent publication US20140228299A1, “PROPHYLACTIC AND THERAPEUTIC AGENT FOR NEUROLOGICAL DISEASES USING LIPOPROTEINS AND PROPHYLACTIC AND THERAPEUTIC METHOD FOR NEUROLOGICAL DISEASES” (National University Corporation Tokyo Medical and Dental …, priority 2011, published 2014)
Non-standard residues stand in square brackets, D forms with d. Residues, ends and D or L forms follow the SMILES beside them. *: point of attachment. Nle = CCCC[C@H](N)C(=O)O; Cbz = O=C(OCc1ccccc1)*; CH2F = FC*

Test system: retinal ganglion cells
Experiment: Glutamic acid-induced apoptosis of cultured retinal ganglion cells (Hoechst 33342 or calcein AM/propidium iodide staining)
Format: cell-based, rat
Conditions: for apoptosis of retinal cells induced by glutamic acid (apoptosis-like cells): Hoechst 33342
Description: The primary culture of the retinal glia cells was carried out using two-day-old Sprague Dawley (SD) baby rats in accordance with a somewhat modified method (Hayashi et al., J. Biol. Chem. 2009) of the method of Barres et al. (Barres, et al., 1988). The isolated retinal glia cells (RGC) were suspended in a base culture medium of a RGC medium (1 mM glutamine, 5 μg/mL insulin, 60 μg/mL N-acetylcysteine, 62 ng/mL progesterone, 16 μg/mL putrescine, 40 ng/mL sodium selenite, 0.1 mg/mL bovine serum albumin, 40 ng/mL triiodothyronine, 0.1 mg/mL transferrin, 1 mM sodium pyruvate, 2% B27 supplement (Invitrogen, Carlsbad, Calif.), 10 μM forskolin (Sigma, St. Louis, Mo.), 50 ng/mL brain-derived neurotrophic factor (BDNF; PeproTech, Rocky Hill, N.J.), 50 ng/mL ciliary neurotrophic factor (CNTF; Peprotech), and 50 ng/mL basic fibroblast growth factor (bFGF; PeproTech). A 96-well plate was coated with poly-d-lysine (Sigma) and laminin (Sigma), and RGC was placed at the rate of 5,000 cells per well for the 96-well place, 5,000 cells per each culture insert for microdish, or 15,000 cells per dish for compartmentalized culture, followed by incubating for at least 10 days before experimentation.
In the figure, Cant represents a non-treated group, Glu represents a group with 300 μM glutamic acid added, and +glial LP represents a group with 300 μM glutamate+glia-cell-derived lipoprotein containing apolipoprotein E added. Glial LP was added in the concentration of 1 μg cholesterol/mL. After treatment, the rate of apoptosis-like cells was computed by observing the aggregation of the nuclei (a: nuclear staining with Hoechst 33342) or the sustained impermeability of esterase activity/membrane (b: calcein AM/Propidium Iodide staining) in 24 hours.
The induction and detection of apoptosis in RGC were performed in the manner as described below. Specifically, RGC was washed twice with Hanks' balanced salt solution (HBSS) containing 2.4 mM CaCl2 and 20 mM HEPES, but not containing magnesium, and incubated at 37° C. for 2 hours in a medium prepared by adding 300 μM glutamate and 10 μM glycine to the above Hanks' balanced salt solution. After treatment with glutamate, RGC was incubated at 37° C. for 22 hours in a RGC culture medium containing no forskolin, BDNF, CNTF and bFGF. In order to detect apoptosis, RGC was stained with 1 μg/mL of Hoechst 33342 (346-07951, Dojindo, Kumamoto, Japan) or 1 μg/mL of calcein-AM/propidium iodide (341-07381, Dojindo). The fluorescence images were observed by Olympus IX71 microscope. The fragmented or aggregated nuclei stained with the above Hoechst reagent were counted as apoptotic nuclei, and round and smooth nuclei were counted as sound nuclei. As the sound nuclei were not stained with propidium iodide, the nuclei stained with propidium iodide were counted as apoptotic nuclei. More than 300 nuclei were counted in each group.
The apoptosis of RGC was measured in the following manner. The RGC subjected to the primary incubated was incubated two times at 37° C. for 15 minutes using Hanks' Balanced Salt Solution (HBSS) containing 2.4 mM CaCl2 and 20 mM 4-(2-hydroxyethyl)-pyperazine-1-ethanesulfonic acid (HEPES) but containing no magnesium and then washed. […], the magnesium was removed from the washing solution. Thereafter, the RGC was treated or not treated with […] (a co-activating agent for the NMDA receptor) in HBSS containing 2.4 mM CaCl2 and 20 mM HEPES (without magnesium) and then incubated at 37° C. for 2 hours. A control (HBSS containing 2.4 mM CaCl2 and 20 mM HEPES (without containing magnesium)) or the RGC treated or not treated with glutamic acid was incubated at 37° C. for 22 hours in the same medium as used for the RGC (without forskolin, brain-derived neurotrophic factor, ciliary neurotrophic factor and basic fibroblast growth factor). […]

COC(=O)C[C@H](NC(=O)[C@H](C)NC(=O)[C@@H](NC(=O)OCc1ccccc1)C(C)C)C(=O)CF [Z-VAD-FMK, reference compound] (Cbz-Val-Ala-Asp(OMe)-CH2F)
apoptosis of retinal cells induced by glutamic acid (apoptosis-like cells) (inhibitor 20 μM): apoptosis inhibition

CCCC[C@@H](C=O)NC(=O)[C@H](CC(C)C)NC(=O)[C@H](CC(C)C)NC(C)=O [ALLN, reference compound] (Ac-Leu-Leu-[Nle]-aldehyde)
apoptosis of retinal cells induced by glutamic acid (apoptosis-like cells) (inhibitor 1 μM): inhibition of apoptosis

C[C@]12N[C@H](Cc3ccccc31)c1ccccc12 [MK 801, reference compound]
apoptosis of retinal cells induced by glutamic acid (apoptosis-like cells) (inhibitor 10 μM): inhibition of apoptosis

B1: α2-macroglobulin: α2-macroglobulin activated with methylamine; hinders neuroprotection by apoE-containing lipoprotein (protein, UniProt P01023 24-1474, looked up)
Alpha-2-macroglobulin: SVSGKPQYMVLVPSLLHTETTEKGCVLLSYLNETVTVSASLESVRGNRSLFTDLEAENDVLHCVAFAVPKSSSNEEVMFLTVQVKGPTQEFKKRTTVMVKNEDSLVFVQTDKSIYKPGQTVKFRVVSMDENFHPLNELIPLVYIQDPKGNRIAQWQSFQLEGGLKQFSFPLSSEPFQGSYKVVVQKKSGGRTEHPFTVEEFVLPKFEVQVTVPKIITILEEEMNVSVCGLYTYGKPVPGHVTVSICRKYSDASDCHGEDSQAFCEKFSGQLNSHGCFYQQVKTKVFQLKRKEYEMKLHTEAQIQEEGTVVELTGRQSSEITRTITKLSFVKVDSHFRQGIPFFGQVRLVDGKGVPIPNKVIFIRGNEANYYSNATTDEHGLVQFSINTTNVMGTSLTVRVNYKDRSPCYGYQWVSEEHEEAHHTAYLVFSPSKSFVHLEPMSHELPCGHTQTVQAHYILNGGTLLGLKKLSFYYLIMAKGGIVRTGTHGLLVKQEDMKGHFSISIPVKSDIAPVARLLIYAVLPTGDVIGDSAKYDVENCLANKVDLSFSPSQSLPASHAHLRVTAAPQSVCALRAVDQSVLLMKPDAELSASSVYNLLPEKDLTGFPGPLNDQDNEDCINRHNVYINGITYTPVSSTNEKDMYSFLEDMGLKAFTNSKIRKPKMCPQLQQYEMHGPEGLRVGFYESDVMGRGHARLVHVEEPHTETVRKYFPETWIWDLVVVNSAGVAEVGVTVPDTITEWKAGAFCLSEDAGLGISSTASLRAFQPFFVELTMPYSVIRGEAFTLKATVLNYLPKCIRVSVQLEASPAFLAVPVEKEQAPHCICANGRQTVSWAVTPKSLGNVNFTVSAEALESQELCGTEVPSVPEHGRKDTVIKPLLVEPEGLEKETTFNSLLCPSGGEVSEELSLKLPPNVVEESARASVSVLGDILGSAMQNTQNLLQMPYGCGEQNMVLFAPNIYVLDYLNETQQLTPEIKSKAIGYLNTGYQRQLNYKHYDGSYSTFGERYGRNQGNTWLTAFVLKTFAQARAYIFIDEAHITQALIWLSQRQKDNGCFRSSGSLLNNAIKGGVEDEVTLSAYITIALLEIPLTVTHPVVRNALFCLESAWKTAQEGDHGSHVYTKALLAYAFALAGNQDKRKEVLKSLNEEAVKKDNSVHWERPQKPKAPVGHFYEPQAPSAEVEMTSYVLLAYLTAQPAPTSEDLTSATNIVKWITKQQNAQGGFSSTQDTVVALHALSKYGAATFTRTGKAAQVTIQSSGTFSSKFQVDNNNRLLLQQVSLPELPGEYSMKVTGEGCVYLQTSLKYNILPEKEEFPFALGVQTLPQTCDEPKAHTSFQISLSVSYTGSRSASNMAIVDVKMVSGFIPLKPTVKMLERSNHVSRTEVSSNHVLIYLDKVSNQTLSLFFTVLQDVPVRDLKPAIVKVYDYYETDEFAIAEYNAPCSKDLGNA
effect on the neuroprotective effects of the lipoprotein containing apoE (Glu+100 ng protein/mL E-LP in the presence of a2M): hinders the neuroprotective effects
